Data set [1] relates to MT4. The data set is described as follows: Antiviral activity of compound against spread of wild type K-60C virus infection in MT-4 human T-lymphoid cells. It counts as functional. To be noted: read-out: CIC95.
Data set [2] in a line: Solubility of compound at pH 5.2. The class given is physicochemical. The settings on record: buffer.
Data set [3] addresses T1, Human immunodeficiency virus type 1 protease (Human immunodeficiency virus 1, UniProt Q72874). Put plainly: Inhibitory activity of compound against HIV-1 protease in HIV-1 (Q-60C) strain.
The test system of data set [4] is MT4. Put plainly: Antiviral activity of compound against spread of wild type Q-60C virus infection in MT-4 human T-lymphoid cells. The class given is functional. The settings on record: read-out: CIC95.
Data set [5] has as its system MT4. Put plainly: Antiviral activity of compound against spread of wild type NL4-3 virus infection in MT-4 human T-lymphoid cells. The class given is functional. To be noted: read-out: CIC95.
A short description of data set [6]: Clearance of compound after both po and iv administration at a dose of 5 mg/kg and 2 mg/kg resp in dog. The class given is ADME, organism-based, Canis lupus familiaris. To be noted: in vivo.
The target of data set [7] is T1, Human immunodeficiency virus type 1 protease. Put plainly: Inhibitory activity of compound against HIV-1 protease in HIV-1 (K-60C) strain.
Data set [8] can be described thus: Area under curve of compound after both po and iv administration at a dose of 5 mg/kg and 2 mg/kg resp in dog. It counts as ADME, organism-based, Canis lupus familiaris. To be noted: in vivo.
Data set [9] relates to MT4. Put plainly: Antiviral activity of compound against spread of wild type V-18C virus infection in MT-4 human T-lymphoid cells. The class given is functional. The settings on record: read-out: CIC95.
A short description of data set [10]: Half life of compound after both po and iv administration at a dose of 5 mg/kg and 2 mg/kg resp in dog. To be noted: in vivo. It counts as ADME, organism-based, Canis lupus familiaris.
The target of data set [11] is T1, Human immunodeficiency virus type 1 protease. The data set is described as follows: Inhibitory activity of compound against HIV-1 protease in HIV-1 (V-18C) strain.
A further data set concerns the target Cytochrome P450 3A4 (Homo sapiens, UniProt P08684). Put plainly: Inhibition of human liver microsome Cytochrome P450 3A4. It counts as ADME, microsomes. In general terms: Microsomes from liver hold many membrane-bound enzymes, among them those of drug oxidation.
A short description of data set [12]: Oral bioavailability in dog (dose 5 mg/kg p.o. and 2 mg/kg i.v.). The class given is ADME, organism-based, Canis lupus familiaris. To be noted: in vivo.
Data set [13] in a line: Cmax of compound after both po and iv administration at a dose of 5 mg/kg and 2 mg/kg resp in dog. The settings on record: in vivo. The class given is ADME, organism-based, Canis lupus familiaris.
For data set [14], the target named is T2, Cytochrome P450 2D6 (Homo sapiens, UniProt P10635). Put plainly: (§1) Inhibition of human liver microsome Cytochrome P450 2D6. The class given is ADME, microsomes.
Data set [15] concerns the target T1, Human immunodeficiency virus type 1 protease. Put plainly: Inhibitory activity of compound against HIV-1 protease in wild type NL4-3 virus.
Data set [16] has as its target T3, Cytochrome P450 2C9 (Homo sapiens, UniProt P11712). Put plainly: Inhibition of huamn liver microsome Cytochrome P450 2C9. The class given is ADME, microsomes.
For data set [17], the target named is T3, Cytochrome P450 2C9. The data set is described as follows: Inhibition of human liver microsome Cytochrome P450 2C9. It counts as ADME, microsomes.
Data set [18] deals with T2, Cytochrome P450 2D6. The description is as §1. It counts as ADME.

Values after ≈ are worked out from the molar mass of the structure shown.

Cytochrome P450 3A4, sequence (P08684 whole entry): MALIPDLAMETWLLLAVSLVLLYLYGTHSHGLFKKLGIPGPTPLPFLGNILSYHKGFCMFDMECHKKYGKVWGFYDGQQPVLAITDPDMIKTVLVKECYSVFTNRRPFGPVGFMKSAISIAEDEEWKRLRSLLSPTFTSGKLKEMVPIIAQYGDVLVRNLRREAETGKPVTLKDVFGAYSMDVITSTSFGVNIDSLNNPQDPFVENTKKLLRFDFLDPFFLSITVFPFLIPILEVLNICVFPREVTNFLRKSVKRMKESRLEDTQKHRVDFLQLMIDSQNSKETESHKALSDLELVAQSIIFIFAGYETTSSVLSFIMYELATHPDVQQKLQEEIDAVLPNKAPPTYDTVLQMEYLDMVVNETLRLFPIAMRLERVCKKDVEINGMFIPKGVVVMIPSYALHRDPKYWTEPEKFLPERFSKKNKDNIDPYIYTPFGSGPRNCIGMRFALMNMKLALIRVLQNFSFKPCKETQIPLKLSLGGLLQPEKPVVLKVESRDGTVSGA
T3 sequence (P11712 whole entry): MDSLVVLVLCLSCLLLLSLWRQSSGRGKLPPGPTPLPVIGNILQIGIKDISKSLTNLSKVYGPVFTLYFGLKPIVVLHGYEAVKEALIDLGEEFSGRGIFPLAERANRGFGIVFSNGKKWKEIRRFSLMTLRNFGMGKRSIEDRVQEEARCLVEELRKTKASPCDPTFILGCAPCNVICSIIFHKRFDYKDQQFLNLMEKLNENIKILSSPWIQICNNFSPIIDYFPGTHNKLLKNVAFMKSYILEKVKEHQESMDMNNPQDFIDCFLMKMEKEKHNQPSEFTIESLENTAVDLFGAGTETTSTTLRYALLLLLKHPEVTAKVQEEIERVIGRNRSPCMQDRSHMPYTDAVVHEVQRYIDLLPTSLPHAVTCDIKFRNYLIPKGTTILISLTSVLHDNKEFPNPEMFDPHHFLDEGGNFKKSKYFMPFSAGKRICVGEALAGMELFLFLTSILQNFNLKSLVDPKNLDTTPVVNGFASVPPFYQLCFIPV
T2 sequence (P10635 whole entry): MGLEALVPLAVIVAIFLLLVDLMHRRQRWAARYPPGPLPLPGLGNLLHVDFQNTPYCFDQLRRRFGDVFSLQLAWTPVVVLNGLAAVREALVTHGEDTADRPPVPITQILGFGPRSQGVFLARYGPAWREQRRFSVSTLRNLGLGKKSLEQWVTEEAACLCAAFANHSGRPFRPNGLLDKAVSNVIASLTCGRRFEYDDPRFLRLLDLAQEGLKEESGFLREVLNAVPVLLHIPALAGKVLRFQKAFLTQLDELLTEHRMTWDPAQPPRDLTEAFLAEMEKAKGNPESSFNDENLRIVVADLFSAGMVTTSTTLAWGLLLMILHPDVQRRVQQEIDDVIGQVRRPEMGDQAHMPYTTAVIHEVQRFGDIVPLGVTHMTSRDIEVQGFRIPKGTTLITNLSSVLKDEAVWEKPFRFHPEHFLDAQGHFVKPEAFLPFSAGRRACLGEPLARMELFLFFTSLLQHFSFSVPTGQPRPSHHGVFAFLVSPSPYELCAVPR

As for `O=C(N[C@H]1c2ccccc2OC[C@H]1O)[C@H](Cc1ccccc1)C[C@H](O)CN1CCN(Cc2ccc(-c3ccncc3)o2)C[C@H]1C(=O)NCC(F)(F)F`, the IC95 with MT4 [1] was 15 nM; in the data set with MT4 [4], 31 nM; in the data set with MT4 [5] it was at most 8 nM; in the data set on MT4 [9], 31 nM. Further, the solubility in [2] worked out at 670 µg/mL (≈ 928 µM). The IC50 in data set [3] worked out at 0.8 nM; in data set [7], 0.6 nM; in data set [11], 1.3 nM. The compound further had a clearance in data set [6] of 24.5 mL/min/kg. The compound also returned an AUC in data set [8] of 2.58 µM·h. The half-life in data set [10] came out at 1 h.
As for `CC(C)(C)NC(=O)[C@@H]1CN(Cc2cccnc2)CCN1C[C@@H](O)C[C@@H](Cc1ccccc1)C(=O)N[C@H]1c2ccccc2C[C@H]1O`, the IC95 in the data set with MT4 [1] was over 1000 nM; with MT4 [4], over 1000 nM; in the data set with MT4 [5], 50 nM; with MT4 [9] it was over 1000 nM.
For `O=C(N[C@H]1c2ccccc2OC[C@H]1O)[C@H](Cc1ccncc1)C[C@H](O)CN1CCN(Cc2ccc(-c3ccccc3)o2)C[C@H]1C(=O)NCC(F)(F)F`, the concentration for half-maximal inhibition (IC50) against Cytochrome P450 3A4 came out at 1500 nM; in data set [3], 0.2 nM; against Cytochrome P450 2D6 [14], 14900 nM; in data set [7], 0.11 nM; in data set [15], 0.04 nM; in data set [11], 0.34 nM. In addition, the IC95 was at most 8 nM with MT4 [1], 31 nM in the data set with MT4 [4], 15 nM in the data set on MT4 [5] and 31 nM with MT4 [9]. The solubility in data set [2] stood at 40 µg/mL (≈ 55.4 µM). The compound further had a bioavailability in [12] of 2%. The compound further displayed a Cmax in data set [13] of 210 nM. Also, the clearance in data set [6] worked out at 17.4 mL/min/kg. This compound also yielded an AUC in [8] of 0.16 µM·h. In addition, the half-life in [10] stood at 1.07 h.
As to `O=C(N[C@H]1c2ccccc2OC[C@H]1O)[C@H](Cc1cccnc1)C[C@H](O)CN1CCN(Cc2ccc(-c3ccccc3)o2)C[C@H]1C(=O)NCC(F)(F)F`, the IC50 came out at 430 nM at Cytochrome P450 3A4; 83900 nM on Cytochrome P450 2C9 [16]; 0.07 nM in data set [3]; 15600 nM on Cytochrome P450 2D6 [14]; 0.06 nM in [7]; 0.02 nM in data set [15]. In data set [11], this compound came in with an IC50 of 0.15 nM. Further, the IC95 in the data set with MT4 [1], in the data set with MT4 [4], in the data set on MT4 [5] and with MT4 [9] was at most 8 nM throughout. In [2], this compound returned a solubility of 10 µg/mL (≈ 13.9 µM). The compound also returned a bioavailability in [12] of 1%. Also, in data set [13], the peak level (Cmax) was 110 nM. This compound came in with a clearance in data set [6] of 20.5 mL/min/kg. Further, the AUC in [8] turned out to be 0.08 µM·h. In data set [10], this compound gave a half-life of 1.23 h.
For `O=C(N[C@H]1c2ccccc2OC[C@H]1O)[C@H](Cc1cccnc1)C[C@H](O)CN1CCN(Cc2cc3ccccc3o2)C[C@H]1C(=O)NCC(F)(F)F`, the half-inhibitory concentration (IC50) at Cytochrome P450 3A4 turned out to be 480 nM; against Cytochrome P450 2C9 [16], 48800 nM; in [3], 2.7 nM; against Cytochrome P450 2D6 [14], 19000 nM; in data set [7], 3.7 nM; in data set [15], 0.04 nM. The concentration for half-maximal inhibition (IC50) in [11] turned out to be 1.3 nM. In addition, the IC95 in the data set on MT4 [1] is 125 nM; with MT4 [4], 125 nM; in the data set on MT4 [5] it was 15 nM; in the data set on MT4 [9], 31 nM. Further, in data set [2], the solubility came to 310 µg/mL (≈ 446 µM). The bioavailability in [12] came out at 24%. Besides, the Cmax in [13] is 3360 nM. Also, in [6], the clearance is 15 mL/min/kg. Further, the exposure (AUC) in data set [8] was 1.94 µM·h. The same compound gave a half-life in data set [10] of 0.867 h.
With `O=C(N[C@H]1c2ccccc2OC[C@H]1O)[C@H](Cc1cccnc1)C[C@H](O)CN1CCN(Cc2cc3cccc(Cl)c3o2)C[C@H]1C(=O)NCC(F)(F)F`, the IC50 is 500 nM against Cytochrome P450 3A4; 27300 nM at Cytochrome P450 2C9 [17]; 8800 nM against Cytochrome P450 2D6 [18]; 0.02 nM in data set [15]; 0.12 nM in data set [11]. Further, the IC95 in the data set with MT4 [1] is 31 nM; in the data set with MT4 [4], 31 nM; in the data set with MT4 [5], 10 nM; in the data set on MT4 [9], at most 8 nM. The solubility in data set [2] stood at 10 µg/mL (≈ 13.7 µM).
Take `O=C(N[C@H]1c2ccccc2OC[C@H]1O)[C@H](Cc1ccncc1)C[C@H](O)CN1CCN(Cc2cc3ccccc3o2)C[C@H]1C(=O)NCC(F)(F)F`: the IC50 turned out to be 2200 nM against Cytochrome P450 3A4; 3600 nM against Cytochrome P450 2D6 [14]; 10 nM in data set [7]; 0.1 nM in [15]; 2.2 nM in [11]. In addition, the concentration in solution in data set [2] (solubility) was 280 µg/mL (≈ 402 µM). In addition, in data set [12], the bioavailability turned out to be 4%. In addition, the IC95 came out at 250 nM in the data set with MT4 [4] and 15 nM in the data set on MT4 [5]. In addition, the highest concentration (Cmax) in data set [13] was 380 nM. Moreover, the clearance in [6] is 22.5 mL/min/kg. Moreover, in data set [8], the AUC came out at 0.22 µM·h. This compound also showed a half-life in data set [10] of 1.7 h.
As to `O=C(N[C@H]1c2ccccc2OC[C@H]1O)[C@H](Cc1ccncc1)C[C@H](O)CN1CCN(Cc2cc3cccc(Cl)c3o2)C[C@H]1C(=O)NCC(F)(F)F`, the IC95 in the data set with MT4 [1] is 62 nM; in the data set with MT4 [4] it was 125 nM; with MT4 [5] it was at most 8 nM; with MT4 [9] it was at most 8 nM. The compound further gave a solubility in data set [2] of under 10 µg/mL. Moreover, the IC50 in [7] amounted to 0.92 nM; in data set [15] it was 0.03 nM; in data set [11], 0.14 nM.

The term solubility denotes the concentration that dissolves in the medium under given conditions. Low values mean little dissolved substance, high ones much dissolved substance. For orientation: IC50 means the midpoint of a concentration-inhibition curve. By AUC is commonly meant concentration integrated over time. Broadly, the half-life is the time needed for the level to fall by half in the phase considered. A higher half-life goes with slow loss. Usually bioavailability stands for dose-corrected exposure relative to a reference, in per cent. A low value points to little systemic uptake. What is called Cmax is the peak of the concentration-time curve.

Values taken from ChEMBL document CHEMBL1136245, “HIV-1 protease inhibitors with picomolar potency against PI-resistant HIV-1 by modification of the P1' substituent” (Bioorg Med Chem Lett, 2003).
